Source: ChEMBL document CHEMBL1201862, “PubChem BioAssay data set” (2004)
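1) Cells in 96-well plates. 2) Compound, 48 h, 5 concentrations. 3) Linear interpolation between surrounding doses. 4) Unreached endpoint = highest concentration. GI50 is the concentration that inhibits growth by half.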 Activity calls are given as the source filed them. No stated cut-off is given here; in the data, active = GI50 up to about 1.1 µM and inactive = higher.

How the values were obtained:
Assay in all cases: NCI anticancer screen, dose series, 48 h
BT-549 = system: BT-549
ACHN = system: ACHN
EKVX = system: EKVX
SNB-75 = system: SNB-75
PC-3 = system: PC-3
UO-31 = system: UO-31
SR = system: SR
A498 = system: A498
HL-60 = system: HL-60
IGROV-1 = system: IGROV-1
SN12C = system: SN12C
HT-29 = system: HT-29
HCT-15 = system: HCT-15
SK-MEL-28 = system: SK-MEL-28
NCI-H226 = system: NCI-H226
OVCAR-5 = system: OVCAR-5
SNB-19 = system: SNB-19
OVCAR-8 = system: OVCAR-8
HOP-62 = system: HOP-62

Row | SMILES | GI50 (BT-549) | GI50 (ACHN) | GI50 (EKVX) | GI50 (SNB-75) | GI50 (PC-3) | GI50 (UO-31) | GI50 (SR) | GI50 (A498) | GI50 (HL-60) | GI50 (IGROV-1) | GI50 (SN12C) | GI50 (HT-29) | GI50 (HCT-15) | GI50 (SK-MEL-28) | GI50 (NCI-H226) | GI50 (OVCAR-5) | GI50 (SNB-19) | GI50 (OVCAR-8) | GI50 (HOP-62)
1 | COC(=O)[C@@H]1C[C@]2(Br)c3ccccc3N(S(=O)(=O)c3ccccc3)[C@@H]2N1C(=O)OC | > 100 µM (inactive) | > 100 µM (inactive) | 74.1 µM (inactive) | 66.8 µM (inactive) | > 100 µM (inactive) | > 100 µM (inactive) | > 100 µM (inactive) | 59.2 µM (inactive) | > 100 µM (inactive) | > 100 µM (inactive) | > 100 µM (inactive) | > 100 µM (inactive) | 67.3 µM | > 100 µM (inactive) | 85.7 µM (inactive) | 51.3 µM (inactive) | > 100 µM (inactive) | > 100 µM (inactive) | > 100 µM (inactive)
2 | COC(=O)C(Cc1c[nH]c2ccccc12)NP(=O)(O)OCC1OC(n2cc(F)c(=O)[nH]c2=O)CC1O (stereo not given) | > 100 µM (inactive) | 6.89 µM (inactive) | > 100 µM (inactive) | > 63.7 µM (inactive) | > 51.1 µM (inactive) | 23.2 µM (inactive) | 5.02 µM (inactive) | 0.964 µM (active) | 40.9 µM (inactive) | > 71.1 µM (inactive) | > 64.4 µM (inactive) | > 100 µM (inactive) | > 100 µM | > 100 µM (inactive) | > 100 µM (inactive) | > 100 µM (inactive) | 40.8 µM (inactive) | 65.9 µM (inactive) | 25.9 µM (inactive)
3 | O=C(NCCCCNCCCNC(=O)C(F)(F)F)C(F)(F)F | > 100 µM (inactive) | > 100 µM (inactive) | > 100 µM (inactive) | > 100 µM (inactive) | > 100 µM (inactive) | > 100 µM (inactive) | > 100 µM (inactive) | > 100 µM (inactive) | 5.07 µM (inactive) | > 100 µM (inactive) | > 100 µM (inactive) | > 100 µM (inactive) | > 100 µM | > 100 µM (inactive) | > 100 µM (inactive) | > 100 µM (inactive) | > 100 µM (inactive) | > 100 µM (inactive) | > 100 µM (inactive)
4 | COc1ccc2oc(=O)c3c(c2c1C)OC(C)(C)C=C3 | > 100 µM (inactive) | > 100 µM (inactive) | > 100 µM (inactive) | > 100 µM (inactive) | > 100 µM (inactive) | > 100 µM (inactive) | > 100 µM (inactive) | > 100 µM (inactive) | > 100 µM (inactive) | > 100 µM (inactive) | > 100 µM (inactive) | > 100 µM (inactive) | > 100 µM | > 100 µM (inactive) | > 100 µM (inactive) | > 100 µM (inactive) | > 100 µM (inactive) | > 100 µM (inactive) | > 100 µM (inactive)
5 | COc1cc2c(NCCCCCCO[N+](=O)[O-])ncnc2c(OC)c1OC | 23.1 µM (inactive) | 32.9 µM (inactive) | 22.5 µM (inactive) | > 69.5 µM (inactive) | 20.7 µM (inactive) | 7.93 µM (inactive) | 9.75 µM (inactive) | 18.1 µM (inactive) | 23.9 µM (inactive) | 23.1 µM (inactive) | 28.7 µM (inactive) | 36.1 µM (inactive) | 24 µM | 45.1 µM (inactive) | 16 µM (inactive) | 30.2 µM (inactive) | 66.5 µM (inactive) | 23.9 µM (inactive) | 26.6 µM (inactive)
6 | CCCCCCCC1C(C)c2c([nH]c3ccccc23)C2C(=O)N(c3ccc(OC)cc3)C(=O)C21 (stereo not given) | 2.11 µM (inactive) | 2.66 µM (inactive) | 3.97 µM (inactive) | 1.95 µM (inactive) | 4.68 µM (inactive) | 2.51 µM (inactive) | 2.84 µM (inactive) | 2.67 µM (inactive) | 1.95 µM (inactive) | > 5.89 µM (inactive) | 2.59 µM (inactive) | 2.63 µM (inactive) | > 7.76 µM | 5.48 µM (inactive) | 3.1 µM (inactive) | > 10 µM (inactive) | 3.31 µM (inactive) | 2.52 µM (inactive) | 2.7 µM (inactive)
7 | C/C(=N/NC(=S)N1CCCC1)c1cccc(/C(C)=N\NC(=S)N2CCCC2)n1 | 2.23 µM (inactive) | 0.791 µM (active) | 0.152 µM (active) | 1.21 µM (inactive) | 0.076 µM (active) | 0.766 µM (active) | 0.0944 µM (active) | 1.29 µM (inactive) | 0.453 µM (active) | 0.881 µM (active) | 1.14 µM (inactive) | 0.0318 µM (active) | 0.492 µM | 1.97 µM (inactive) | 1.62 µM (inactive) | 1.7 µM (inactive) | 2.57 µM (inactive) | 1.11 µM (active) | 0.378 µM (active)
8 | CCOC(=O)C1=NNC(C(=O)c2ccccc2)C1c1ccccc1 (stereo not given) | 2.08 µM (inactive) | 1.85 µM (inactive) | 8.95 µM (inactive) | 5.7 µM (inactive) | 10.4 µM (inactive) | 2.01 µM (inactive) | 1.81 µM (inactive) | 25.1 µM (inactive) | 0.644 µM (active) | 4.6 µM (inactive) | 2.08 µM (inactive) | 2.28 µM (inactive) | 2.15 µM | 1.91 µM (inactive) | 18.1 µM (inactive) | 6.47 µM (inactive) | 14.4 µM (inactive) | 5.51 µM (inactive) | 12.2 µM (inactive)
9 | CC1CC[C@@]2(OC1)OC1C[C@H]3[C@@H]4CC[C@H]5CC(OC6OC(CO)C(OC7OC(CO)C(O)C(O)C7O)C(O)C6O)CCC5(C)[C@H]4CCC3(C)C1[C@@H]2C (stereo not given in full) | 4.86 µM (inactive) | 7.53 µM (inactive) | 5.33 µM (inactive) | 9.93 µM (inactive) | 7.45 µM (inactive) | 11.1 µM (inactive) | 9.59 µM (inactive) | 8.65 µM (inactive) | 8.87 µM (inactive) | 2.52 µM (inactive) | 7.35 µM (inactive) | 7.35 µM (inactive) | 12.6 µM | 9.2 µM (inactive) | 8.81 µM (inactive) | 8.65 µM (inactive) | 9.04 µM (inactive) | 8.45 µM (inactive) | 6.03 µM (inactive)
10 | CCOC(=O)C1C(=O)CC(O)(c2ccccc2)C(C(=O)OCC)C1c1ccc(N(C)C)cc1 (stereo not given) | 28.6 µM (inactive) | 50.4 µM (inactive) | 40.9 µM (inactive) | 24.9 µM (inactive) | 18.3 µM (inactive) | 49.8 µM (inactive) | 7.33 µM (inactive) | 31.6 µM (inactive) | 8.18 µM (inactive) | 31.2 µM (inactive) | 50.2 µM (inactive) | 15.8 µM (inactive) | 34.7 µM | 45.6 µM (inactive) | 51.4 µM (inactive) | 74.3 µM (inactive) | 29.9 µM (inactive) | 20 µM (inactive) | 30.8 µM (inactive)
11 | COc1cc(/C=C2/SC(c3ccccc3)N(c3ccc(Cl)cc3)C2=O)cc(OC)c1OC (stereo not given) | > 59 µM (inactive) | 4.35 µM (inactive) | > 52.6 µM (inactive) | 95.3 µM (inactive) | 28.6 µM (inactive) | 10.9 µM (inactive) | 7.6 µM (inactive) | > 80 µM (inactive) | 10.1 µM (inactive) | > 100 µM (inactive) | > 32 µM (inactive) | > 100 µM (inactive) | 8.13 µM | > 56.6 µM (inactive) | > 100 µM (inactive) | > 100 µM (inactive) | > 58.2 µM (inactive) | > 100 µM (inactive) | > 29.4 µM (inactive)
12 | O=C1c2ccccc2C2CNC1(O)c1ccccc12 (stereo not given) | > 100 µM (inactive) | > 100 µM (inactive) | > 100 µM (inactive) | > 100 µM (inactive) | > 100 µM (inactive) | > 100 µM (inactive) | > 100 µM (inactive) | > 100 µM (inactive) | > 100 µM (inactive) | > 100 µM (inactive) | > 100 µM (inactive) | > 100 µM (inactive) | > 100 µM | > 100 µM (inactive) | 35.1 µM (inactive) | > 100 µM (inactive) | > 100 µM (inactive) | > 100 µM (inactive) | > 100 µM (inactive)
13 | Cn1cc(S(=O)(=O)NC(=O)Nc2ccc(Cl)cc2)c2ccccc21 | > 100 µM (inactive) | 25.4 µM (inactive) | > 100 µM (inactive) | > 100 µM (inactive) | 43.9 µM (inactive) | 44.8 µM (inactive) | > 100 µM (inactive) | > 100 µM (inactive) | > 100 µM (inactive) | 13.3 µM (inactive) | > 100 µM (inactive) | > 100 µM (inactive) | 4.5 µM | > 100 µM (inactive) | 83.8 µM (inactive) | 46.1 µM (inactive) | > 100 µM (inactive) | 82.2 µM (inactive) | 15.1 µM (inactive)
14 | Nc1ccc2c(=O)cc(-c3cccs3)[nH]c2n1 | 4.88 µM (inactive) | 11.7 µM (inactive) | 6.5 µM (inactive) | 2.46 µM (inactive) | 1.74 µM (inactive) | 3.54 µM (inactive) | 0.151 µM (active) | > 37.8 µM (inactive) | 0.234 µM (active) | 2.64 µM (inactive) | 5.16 µM (inactive) | 3.66 µM (inactive) | 1.29 µM | 4.32 µM (inactive) | 2.42 µM (inactive) | 15.3 µM (inactive) | 7.38 µM (inactive) | 2.86 µM (inactive) | 7.31 µM (inactive)
15 | CCOP(=O)(O)CN1CCNCCN(CP(=O)(O)OCC)CCNCC1 | > 100 µM (inactive) | > 100 µM (inactive) | > 100 µM (inactive) | > 100 µM (inactive) | > 100 µM (inactive) | 35.2 µM (inactive) | > 10 µM (inactive) | > 100 µM (inactive) | 53 µM (inactive) | > 100 µM (inactive) | > 100 µM (inactive) | 61.9 µM (inactive) | > 100 µM | > 100 µM (inactive) | > 100 µM (inactive) | > 100 µM (inactive) | > 100 µM (inactive) | > 100 µM (inactive) | > 100 µM (inactive)
